From ChEMBL document CHEMBL3621041, “Optimization of a Novel Binding Motif to (E)-3-(3,5-Difluoro-4-((1R,3R)-2-(2-fluoro-2-methylpropyl)-3-methyl-2,3,4,9-tetrahydro-1H-pyrido[3,4-b]indol-1-yl)phenyl)acrylic Acid (AZD9496), a Potent and Orally Bioavailable Selective Estrogen Receptor Downregulator and Antagonist” (J Med Chem, 2015)
Values after ≈ are worked out from the molar mass of the structure shown. Active and inactive are the calls of the source. No cut-off for these calls is given here.

Columns and labels:
Progesterone receptor [1] = molecular target: T1, Progesterone receptor (Homo sapiens, UniProt P06401); test: Agonist activity at progesterone receptor in human MCF7 cells; type: cell-based
T1 sequence (P06401 whole entry): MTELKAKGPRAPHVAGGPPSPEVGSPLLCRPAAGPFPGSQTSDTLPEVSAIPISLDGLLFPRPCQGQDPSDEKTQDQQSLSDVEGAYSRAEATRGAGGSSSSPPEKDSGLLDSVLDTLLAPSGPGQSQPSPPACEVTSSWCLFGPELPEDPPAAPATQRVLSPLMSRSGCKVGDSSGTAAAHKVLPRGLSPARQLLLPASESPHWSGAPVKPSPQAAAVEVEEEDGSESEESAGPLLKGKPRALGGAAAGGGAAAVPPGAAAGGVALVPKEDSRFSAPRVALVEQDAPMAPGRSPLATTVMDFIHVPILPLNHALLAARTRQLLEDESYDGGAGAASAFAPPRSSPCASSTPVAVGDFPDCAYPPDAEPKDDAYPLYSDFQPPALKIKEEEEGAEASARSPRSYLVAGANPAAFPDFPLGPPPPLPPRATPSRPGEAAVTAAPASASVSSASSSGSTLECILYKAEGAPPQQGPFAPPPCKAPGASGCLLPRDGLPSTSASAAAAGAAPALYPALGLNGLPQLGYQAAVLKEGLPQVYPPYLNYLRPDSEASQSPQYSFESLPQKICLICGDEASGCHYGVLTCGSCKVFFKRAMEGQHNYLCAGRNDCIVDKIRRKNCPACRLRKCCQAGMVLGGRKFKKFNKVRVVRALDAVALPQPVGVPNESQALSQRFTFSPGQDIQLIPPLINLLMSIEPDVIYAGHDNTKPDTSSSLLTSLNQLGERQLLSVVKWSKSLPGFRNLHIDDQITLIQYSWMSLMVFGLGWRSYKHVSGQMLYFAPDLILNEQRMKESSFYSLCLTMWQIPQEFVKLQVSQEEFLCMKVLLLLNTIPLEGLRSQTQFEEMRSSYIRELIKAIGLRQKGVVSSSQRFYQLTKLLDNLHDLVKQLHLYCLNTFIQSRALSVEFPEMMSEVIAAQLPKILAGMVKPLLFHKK

[2] = Lipophilicity, log D of the compound at pH 7.4; type: physicochemical; conditions: buffer
[3] = Thermodynamic solubility of the compound in 0.1 M phosphate buffer at pH 7.4 after 24 hrs; type: physicochemical; conditions: read-out: Therm_solubility
[4] = Fraction unbound in Han Wistar rat 10% plasma by equilibrium dialysis; type: ADME, cell-free
[5] = Intrinsic clearance in rat cryopreserved hepatocytes assessed per 10^6 cells; type: ADME, cell-based, Hepatocyte; conditions: read-out: CLH
[6] = Intrinsic clearance in human cryopreserved hepatocytes assessed per 10^6 cells; type: ADME, cell-based, Hepatocyte; conditions: read-out: CLH
Androgen receptor = molecular target: T2, Androgen receptor (Homo sapiens, UniProt P10275); test: Binding affinity to androgen receptor (unknown origin)
T2 sequence (P10275 whole entry): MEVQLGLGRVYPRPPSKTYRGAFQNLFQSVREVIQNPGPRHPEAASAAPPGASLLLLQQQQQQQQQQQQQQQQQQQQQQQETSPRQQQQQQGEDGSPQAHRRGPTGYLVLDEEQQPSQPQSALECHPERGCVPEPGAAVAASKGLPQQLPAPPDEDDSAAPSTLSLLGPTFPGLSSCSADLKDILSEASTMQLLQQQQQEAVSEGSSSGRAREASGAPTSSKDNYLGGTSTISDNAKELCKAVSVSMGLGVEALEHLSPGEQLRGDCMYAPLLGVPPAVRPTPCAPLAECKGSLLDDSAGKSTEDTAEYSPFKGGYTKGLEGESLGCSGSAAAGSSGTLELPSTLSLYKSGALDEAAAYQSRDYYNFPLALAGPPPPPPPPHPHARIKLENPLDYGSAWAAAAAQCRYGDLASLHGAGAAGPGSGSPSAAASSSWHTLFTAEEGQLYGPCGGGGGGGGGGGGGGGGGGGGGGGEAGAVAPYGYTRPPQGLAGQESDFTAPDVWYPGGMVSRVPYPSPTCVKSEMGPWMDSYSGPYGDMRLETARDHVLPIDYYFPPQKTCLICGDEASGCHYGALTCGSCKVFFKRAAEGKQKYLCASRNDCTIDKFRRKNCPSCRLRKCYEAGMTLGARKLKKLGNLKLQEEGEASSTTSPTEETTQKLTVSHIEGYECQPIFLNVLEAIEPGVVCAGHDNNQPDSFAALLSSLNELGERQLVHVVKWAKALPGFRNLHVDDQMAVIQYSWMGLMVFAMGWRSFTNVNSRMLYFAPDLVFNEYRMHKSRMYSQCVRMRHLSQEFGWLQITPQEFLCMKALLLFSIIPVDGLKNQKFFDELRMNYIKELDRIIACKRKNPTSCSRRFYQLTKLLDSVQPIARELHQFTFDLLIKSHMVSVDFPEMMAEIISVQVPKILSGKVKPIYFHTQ

Progesterone receptor [7] = molecular target: T1, Progesterone receptor; test: Binding affinity to progesterone receptor (unknown origin)
Glucocorticoid receptor = molecular target: T3, Glucocorticoid receptor (Homo sapiens, UniProt P04150); test: Binding affinity to glucocorticoid receptor (unknown origin)
T3 sequence (P04150 whole entry): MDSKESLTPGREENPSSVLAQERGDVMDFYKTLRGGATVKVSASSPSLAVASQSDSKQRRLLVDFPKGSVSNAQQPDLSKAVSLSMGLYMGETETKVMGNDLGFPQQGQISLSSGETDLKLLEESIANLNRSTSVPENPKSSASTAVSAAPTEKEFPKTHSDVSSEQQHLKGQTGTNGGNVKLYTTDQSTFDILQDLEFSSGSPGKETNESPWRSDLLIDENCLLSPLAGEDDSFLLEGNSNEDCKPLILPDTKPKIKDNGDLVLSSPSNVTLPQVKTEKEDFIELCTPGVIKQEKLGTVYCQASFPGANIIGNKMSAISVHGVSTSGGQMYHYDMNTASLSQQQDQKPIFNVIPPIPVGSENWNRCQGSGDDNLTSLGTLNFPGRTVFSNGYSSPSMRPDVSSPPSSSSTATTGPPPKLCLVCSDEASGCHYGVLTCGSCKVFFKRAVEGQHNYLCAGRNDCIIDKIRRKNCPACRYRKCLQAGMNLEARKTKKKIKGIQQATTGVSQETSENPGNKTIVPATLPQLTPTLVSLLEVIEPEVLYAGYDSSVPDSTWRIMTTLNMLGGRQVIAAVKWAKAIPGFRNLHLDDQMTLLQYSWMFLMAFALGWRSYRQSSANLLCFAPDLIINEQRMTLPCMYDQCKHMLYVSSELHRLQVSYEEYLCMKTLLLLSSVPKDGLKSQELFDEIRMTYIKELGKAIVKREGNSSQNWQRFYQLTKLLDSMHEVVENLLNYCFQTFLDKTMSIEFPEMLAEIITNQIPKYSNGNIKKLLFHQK

Estrogen receptor [8] = molecular target: T4, Estrogen receptor (Homo sapiens, UniProt P03372)
T4 sequence (P03372 whole entry): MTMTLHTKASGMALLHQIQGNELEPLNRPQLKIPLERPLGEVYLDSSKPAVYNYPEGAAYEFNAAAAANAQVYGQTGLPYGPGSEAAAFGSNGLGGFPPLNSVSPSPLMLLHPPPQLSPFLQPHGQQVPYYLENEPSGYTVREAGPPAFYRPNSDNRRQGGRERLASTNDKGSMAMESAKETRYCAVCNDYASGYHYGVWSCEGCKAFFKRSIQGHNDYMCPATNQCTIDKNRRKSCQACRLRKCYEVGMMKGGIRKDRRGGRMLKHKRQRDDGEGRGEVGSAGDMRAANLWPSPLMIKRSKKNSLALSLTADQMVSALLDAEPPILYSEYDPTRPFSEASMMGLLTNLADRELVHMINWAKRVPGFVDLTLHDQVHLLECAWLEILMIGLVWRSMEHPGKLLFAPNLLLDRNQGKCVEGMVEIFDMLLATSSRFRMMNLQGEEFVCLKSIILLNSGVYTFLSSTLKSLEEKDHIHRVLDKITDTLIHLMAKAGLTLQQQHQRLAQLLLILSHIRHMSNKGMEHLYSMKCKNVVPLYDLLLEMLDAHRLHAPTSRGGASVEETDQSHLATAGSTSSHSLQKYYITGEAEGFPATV
Description: Binding affinity to ERalpha receptor (unknown origin)

Estrogen receptor [9] = molecular target: T4, Estrogen receptor; remark: listed apart in the source
Description: Antagonist activity at ERalpha receptor in human MCF7 cells

[10] = Fraction unbound in human 10% plasma by equilibrium dialysis; type: ADME, cell-free
[11] = Volume of distribution at steady state in Han Wistar rat at 5 umol/kg, iv and 13 umol/kg, po; type: ADME, organism-based; conditions: in vivo, read-out: Vdss
[12] = Clearance in Han Wistar rat at 5 umol/kg, iv and 13 umol/kg, po; type: ADME, organism-based; conditions: in vivo
[13] = Oral bioavailability in Han Wistar rat at 13 umol/kg; type: ADME, organism-based; conditions: in vivo
[14] = Volume of distribution at steady state in CD1 mouse at 5 umol/kg, iv and 13 umol/kg, po; type: ADME, organism-based; conditions: in vivo, read-out: Vdss
[15] = Clearance in CD1 mouse at 5 umol/kg, iv and 13 umol/kg, po; type: ADME, organism-based; conditions: in vivo
[16] = Oral bioavailability in CD1 mouse at 13 umol/kg; type: ADME, organism-based; conditions: in vivo
[17] = Volume of distribution at steady state in Alderley Park beagle dog at 2.5 umol/kg, iv and 5 umol/kg, po; type: ADME, organism-based, Canis lupus familiaris; conditions: in vivo, read-out: Vdss
[18] = Clearance in Alderley Park beagle dog at 2.5 umol/kg, iv and 5 umol/kg, po; type: ADME, organism-based, Canis lupus familiaris; conditions: in vivo
[19] = Oral bioavailability in Alderley Park beagle dog at 5 umol/kg; type: ADME, organism-based, Canis lupus familiaris; conditions: in vivo
MCF7 [20] = test: cells; conditions: Homo sapiens, MCF7, read-out: pIC50 (converted)
Description: Antiproliferative activity against human MCF7 cells

[21] = Volume of distribution at steady state in Han Wistar rat at 2.2 umol/kg, iv and 4.5 umol/kg, po; type: ADME, organism-based; conditions: in vivo, read-out: Vdss
[22] = Clearance in Han Wistar rat at 2.2 umol/kg, iv and […] umol/kg, po; type: ADME, organism-based; conditions: in vivo
[23] = Oral bioavailability in Han Wistar rat at 4.5 umol/kg; type: ADME, organism-based; conditions: in vivo
[24] = Volume of distribution at steady state in SCID mouse at 2.3 umol/kg, iv and 5.6 umol/kg, po; type: ADME, organism-based; conditions: in vivo, read-out: Vdss
[25] = Clearance in SCID mouse at 2.3 umol/kg, iv and 5.6 umol/kg, po; type: ADME, organism-based; conditions: in vivo
[26] = Oral bioavailability in SCID mouse at 5.6 umol/kg; type: ADME, organism-based; conditions: in vivo
MCF7 [27] = test: Antitumor activity against human MCF7 cells xenografted in mouse assessed as tumor growth inhibition administered orally daily once; type: functional
MCF7 [28] = test: Antitumor activity against human MCF7 cells xenografted in mouse assessed as tumor regression at 5 mg/kg, po qd; type: functional, organism-based

## OCCN1CCc2c([nH]c3ccccc23)C1c1ccc(Cl)cc1 (racemic)
Progesterone receptor [1]
  IC50: > 100000 nM
[2]
  logD: 3.7
[3]
  solubility thermodynamic at 24 h: 15 µM (≈ 4.9 µg/mL)
[4]
  fraction unbound: 0.045
[5]
  hepatocyte CLint: 300 µL/min/1e6 cells
[6]
  hepatocyte CLint: 70 µL/min/1e6 cells
Androgen receptor; read-out: pIC50 (converted)
  IC50: > 31600 nM
Progesterone receptor [7]
  IC50: > 31600 nM
Glucocorticoid receptor; read-out: pIC50 (converted)
  IC50: > 31600 nM
Estrogen receptor [8]
  IC50: 2040 nM
Estrogen receptor [9]
  IC50: 1170 nM

## CC(C)CN1[C@H](c2ccc(/C=C/C(=O)O)cc2)c2[nH]c3ccccc3c2C[C@H]1C
Progesterone receptor [1]
  IC50: > 100000 nM
[2]
  logD: 2.6
[3]
  solubility thermodynamic at 24 h: > 1000 µM
[4]
  fraction unbound: 0.0069
[10]
  fraction unbound: 0.0051
[5]
  hepatocyte CLint: 18 µL/min/1e6 cells
[6]
  hepatocyte CLint: 40 µL/min/1e6 cells
[11]
  Vd: 1.1 L/kg
[12]
  clearance: 6.2 mL/min/kg
[13]
  bioavailability: 80%
[14]
  Vd: 3.7 L/kg
[15]
  clearance: 21 mL/min/kg
[16]
  bioavailability: 86%
[17]
  Vd: 0.3 L/kg
[18]
  clearance: 0.96 mL/min/kg
[19]
  bioavailability: 111%
Estrogen receptor [8]
  IC50: 6.46 nM
Estrogen receptor [9]
  IC50: 2.09 nM
MCF7 [20]
  IC50: 0.776 nM

## C[C@@H]1Cc2c([nH]c3ccccc23)[C@@H](c2c(F)cc(/C=C/C(=O)O)cc2F)N1CC(C)(C)F [AZD-9496]
[2]
  logD: 2.8
[3]
  solubility thermodynamic at 24 h: 110 µM (≈ 48.7 µg/mL)
[4]
  fraction unbound: 0.0037
[10]
  fraction unbound: 0.0026
[5]
  hepatocyte CLint: 4.2 µL/min/1e6 cells
[6]
  hepatocyte CLint: 32 µL/min/1e6 cells
Androgen receptor; read-out: IC50
  IC50: 30000 nM
Glucocorticoid receptor; read-out: IC50
  IC50: 9200 nM
[17]
  Vd: 2.2 L/kg
[18]
  clearance: 0.28 mL/min/kg
[19]
  bioavailability: 79%
[21]
  Vd: 0.43 L/kg
[22]
  clearance: 1 mL/min/kg
[23]
  bioavailability: 63%
[24]
  Vd: 2.2 L/kg
[25]
  clearance: 43 mL/min/kg
[26]
  bioavailability: 128%
MCF7 [27]
  growth inhibition (GI): Dose-dependent effect
MCF7 [28]
  Activity: Active
MCF7 [20]
  IC50: 0.0398 nM
